PubChem BioAssay AID328 (DTP/NCI, 2004)
Several values for one entry are separate records, joined by “and”; a condition that tells them apart may be missing. Identical values can stand only once. Inconclusive results and toxic doses are left out. The calls were made as follows: active = survival T/C of 150% or more; inactive = T/C below 125% in these data.

System: BDF1 mice, P388 leukemia ip, median survival T/C
Test: NCI In Vivo Anticancer Drug Screen. Data for tumor model P388 Leukemia (intraperitoneal) in B6D2F1 (BDF1) mice
Settings: endpoint: median survival time, higher = longer survival
In short: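 Antitumour effect was judged in vivo: survival in drug-treated mice, normalised to that of vehicle-dosed controls, gives the reported T/C.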

[1] = dose: 100.0 mg/kg/injection, schedule: Q04DX003 (ip), vehicle: Klucel (hydroxypropylcellulose) (HPC)
[2] = dose: 200.0 mg/kg/injection, schedule: Q04DX003 (ip), vehicle: Klucel (hydroxypropylcellulose) (HPC)
[3] = dose: 6.25 mg/kg/injection, schedule: Q01DX009 (ip), vehicle: saline
[4] = dose: 100.0 mg/kg/injection, schedule: Q01DX009 (ip), vehicle: saline with Tween-80
[5] = dose: 200.0 mg/kg/injection, schedule: Q01DX009 (ip), vehicle: saline with Tween-80
[6] = dose: 400.0 mg/kg/injection, schedule: Q01DX009 (ip), vehicle: saline with Tween-80
[7] = dose: 50.0 mg/kg/injection, schedule: Q01DX009 (ip), vehicle: Klucel (hydroxypropylcellulose) (HPC)
[8] = dose: 100.0 mg/kg/injection, schedule: Q01DX009 (ip), vehicle: Klucel (hydroxypropylcellulose) (HPC)
[9] = dose: 200.0 mg/kg/injection, schedule: Q01DX009 (ip), vehicle: Klucel (hydroxypropylcellulose) (HPC)
[10] = dose: 400.0 mg/kg/injection, schedule: Q04DX003 (ip), vehicle: Klucel (hydroxypropylcellulose) (HPC)
[11] = dose: 50.0 mg/kg/injection, schedule: Q01DX009 (ip), vehicle: saline with Tween-80
[12] = dose: 400.0 mg/kg/injection, schedule: Q01DX009 (ip), vehicle: Klucel (hydroxypropylcellulose) (HPC)
[13] = dose: 25.0 mg/kg/injection, schedule: Q01DX009 (ip), vehicle: Klucel (hydroxypropylcellulose) (HPC)
[14] = dose: 50.0 mg/kg/injection, schedule: Q04DX003 (ip), vehicle: saline
[15] = dose: 100.0 mg/kg/injection, schedule: Q04DX003 (ip), vehicle: saline
[16] = dose: 200.0 mg/kg/injection, schedule: Q04DX003 (ip), vehicle: saline
[17] = dose: 12.5 mg/kg/injection, schedule: Q01DX009 (ip), vehicle: saline with Tween-80
[18] = dose: 25.0 mg/kg/injection, schedule: Q01DX009 (ip), vehicle: saline with Tween-80

Measured: T/C

CC1=C/C(=N/NC(N)=O)CC(C)C1 (centres undefined)
inactive: dose: 50.0 mg/kg/injection, schedule: Q04DX003 (ip), vehicle: Klucel (hydroxypropylcellulose) (HPC) 100 % of control | [1] 105 % of control | [2] 100 % of control

CC[n+]1ccc(Nc2ccc(NC(=O)c3ccc(Nc4cc[n+](CC)c5ccc(N)cc45)cc3)cc2)cc1
inactive: dose: 0.02 mg/kg/injection, schedule: Q01DX010 (ip), vehicle: saline 115 % of control | dose: 0.1 mg/kg/injection, schedule: Q01DX010 (ip), vehicle: saline 110 % of control | dose: 4.0 mg/kg/injection, schedule: Q01DX010 (ip), vehicle: saline 120 % of control | dose: 8.0 mg/kg/injection, schedule: Q01DX009 (ip), vehicle: water 116 % of control | dose: 8.0 mg/kg/injection, schedule: Q01DX010 (ip), vehicle: saline 100 % of control
active: dose: 0.5 mg/kg/injection, schedule: Q01DX009 (ip), vehicle: water 154 % of control | dose: 0.5 mg/kg/injection, schedule: Q01DX010 (ip), vehicle: saline 170 % of control | dose: 1.0 mg/kg/injection, schedule: Q01DX009 (ip), vehicle: water 158 % of control | dose: 1.0 mg/kg/injection, schedule: Q01DX010 (ip), vehicle: saline 195 % of control | dose: 2.0 mg/kg/injection, schedule: Q01DX009 (ip), vehicle: water 212 % of control | dose: 2.0 mg/kg/injection, schedule: Q01DX010 (ip), vehicle: saline 275 % of control | dose: 4.0 mg/kg/injection, schedule: Q01DX009 (ip), vehicle: water 250 % of control

O=C1Nc2c(Cl)cc(Cl)cc2/C1=N/N=C/c1ccccc1O
inactive: dose: 12.5 mg/kg/injection, schedule: Q01DX005 (ip), vehicle: saline with Tween-80 95 % of control | dose: 25.0 mg/kg/injection, schedule: Q01DX005 (ip), vehicle: saline with Tween-80 95 % of control | dose: 50.0 mg/kg/injection, schedule: Q01DX005 (ip), vehicle: saline with Tween-80 95 % of control

NC(=O)CCCNC(=O)CCC[c-]1[c-][c-][c-][c-]1.[Fe].[c-]1[c-][c-][cH-][c-]1
inactive: dose: 6.25 mg/kg/injection, schedule: Q01DX009 (ip), vehicle: other 100 % of control | dose: 12.5 mg/kg/injection, schedule: Q01DX009 (ip), vehicle: other 98 % of control | dose: 25.0 mg/kg/injection, schedule: Q01DX009 (ip), vehicle: other 100 % of control | dose: 50.0 mg/kg/injection, schedule: Q01DX009 (ip), vehicle: other 114 % of control | dose: 100.0 mg/kg/injection, schedule: Q01DX009 (ip), vehicle: other 121 % of control

Nc1nc(N)c2cc(CNc3ccc(C(=O)NC(CC(=O)O)C(=O)O)cc3)ccc2n1 (centres undefined)
inactive: dose: 0.11 mg/kg/injection, schedule: Q01DX009 (ip), vehicle: saline 112 % of control | [3] 95 % of control | dose: 25.0 mg/kg/injection, schedule: Q04DX003 (ip), vehicle: saline sonified 96 % of control
active: dose: 0.38 mg/kg/injection, schedule: Q01DX009 (ip), vehicle: saline 154 % of control | dose: 0.5 mg/kg/injection, schedule: Q01DX009 (ip), vehicle: saline 183 % of control | dose: 1.0 mg/kg/injection, schedule: Q04DX003 (ip), vehicle: saline sonified 213 % of control | dose: 2.0 mg/kg/injection, schedule: Q04DX003 (ip), vehicle: saline sonified 204 % of control | dose: 5.5 mg/kg/injection, schedule: Q04DX003 (ip), vehicle: saline sonified 161 % of control | dose: 8.25 mg/kg/injection, schedule: Q04DX003 (ip), vehicle: saline sonified 177 % of control

O=C1CCC(C(=O)N/N=C\C=N/NC(=O)C2CCC(=O)N2)N1 (centres undefined)
inactive: dose: 20.0 mg/kg/injection, schedule: Q01DX009 (ip), vehicle: saline with Tween-80 91 % of control

COC(=O)C(C)=O
inactive: [4] 90 % of control | [5] 95 % of control | [6] 90 % of control

CCOC(=O)C(C)Cl (centres undefined)
inactive: [7] 104 % of control | [8] 100 % of control | [1] 110 % of control | [9] 91 % of control | [2] 105 % of control | [10] 105 % of control

CCOC(=O)/C(C#N)=C/c1c(-c2ccccc2)nn2ccccc12
inactive: [11] 96 % of control | [4] 91 % of control

COc1ccc(OC)c([N+](=O)[O-])c1
inactive: [1] 100 % of control | [9] 95 % of control | [2] 95 % of control | [12] 90 % of control | [10] 100 % of control

Clc1ccc2c(c1)nnn2OC1CCCCC1
inactive: [11] 88 % of control | [4] 92 % of control | [5] 90 % of control

O=C(Nc1cccc(C(F)(F)F)c1)Nc1nccs1
inactive: [13] 121 % of control | [7] 111 % of control | [8] 102 % of control | [9] 104 % of control

Nc1nc(=O)c2[nH]cnc2n1O
inactive: dose: 13.75 mg/kg/injection, schedule: Q01DX009 (ip), vehicle: saline 90 % of control | dose: 27.5 mg/kg/injection, schedule: Q01DX009 (ip), vehicle: saline 95 % of control

O=C1CCCCCC1Cc1cc(O)c(CC2CCCCCC2=O)cc1O (centres undefined)
inactive: [11] 96 % of control | [5] 97 % of control

O=S1(=O)C(C(O)(c2ccccc2)c2ccccc2)CCCN1c1ccccc1 (centres undefined)
inactive: [11] 100 % of control | [4] 91 % of control | [5] 97 % of control

CC(=O)/C=C/c1ccc2c(c1)OCO2
inactive: dose: 25.0 mg/kg/injection, schedule: Q04DX003 (ip), vehicle: saline 105 % of control | [14] 103 % of control | [15] 102 % of control and 114 % of control | [16] 100 % of control and 108 % of control and 122 % of control | dose: 300.0 mg/kg/injection, schedule: Q04DX003 (ip), vehicle: saline 100 % of control and 103 % of control | dose: 400.0 mg/kg/injection, schedule: Q04DX003 (ip), vehicle: saline 91 % of control and 94 % of control | dose: 500.0 mg/kg/injection, schedule: Q04DX003 (ip), vehicle: saline 106 % of control and 109 % of control

CC(=O)NNc1ccccc1
inactive: dose: 12.5 mg/kg/injection, schedule: Q01DX009 (ip), vehicle: Klucel (hydroxypropylcellulose) (HPC) 109 % of control | [13] 109 % of control | [7] 100 % of control | [2] 117 % of control

COc1c(Br)cc(N=Cc2ccc(N(CCCl)CCCl)cc2C)cc1Br
inactive: dose: 88.0 mg/kg/injection, schedule: Q01DX010 (ip), vehicle: carboxymethylcellulose (CMC) 115 % of control
active: dose: 133.0 mg/kg/injection, schedule: Q01DX010 (ip), vehicle: carboxymethylcellulose (CMC) 155 % of control | dose: 200.0 mg/kg/injection, schedule: Q01DX010 (ip), vehicle: carboxymethylcellulose (CMC) 165 % of control | dose: 300.0 mg/kg/injection, schedule: Q01DX010 (ip), vehicle: carboxymethylcellulose (CMC) 215 % of control

CCOCc1cc([N+](=O)[O-])cc([N+](=O)[O-])c1O
inactive: [17] 109 % of control | [18] 113 % of control

O=C(CCl)Oc1ccc(-c2ccccc2)cc1Br
inactive: [11] 105 % of control | [4] 102 % of control | [5] 103 % of control | [6] 88 % of control

CCCCCCC(=O)/C=C/c1cc(OC)ccc1OC
inactive: [17] 100 % of control | [18] 95 % of control | [11] 104 % of control | [4] 104 % of control

COc1ccc2c(c1)N(C)CCCC2=O
inactive: dose: 3.12 mg/kg/injection, schedule: Q01DX009 (ip), vehicle: saline 91 % of control | [3] 103 % of control | dose: 12.5 mg/kg/injection, schedule: Q01DX009 (ip), vehicle: saline 91 % of control | dose: 25.0 mg/kg/injection, schedule: Q01DX009 (ip), vehicle: saline 87 % of control and 91 % of control | dose: 50.0 mg/kg/injection, schedule: Q01DX009 (ip), vehicle: saline 108 % of control and 113 % of control | [14] 99 % of control | dose: 100.0 mg/kg/injection, schedule: Q01DX009 (ip), vehicle: saline 92 % of control | [15] 103 % of control | dose: 200.0 mg/kg/injection, schedule: Q01DX009 (ip), vehicle: saline 89 % of control | [16] 99 % of control

CC1(C)C=C(C(Br)c2cccc(Br)c2)C(=O)c2ccccc21 (centres undefined)
inactive: [8] 120 % of control | [1] 90 % of control | [9] 110 % of control | [2] 95 % of control | [12] 110 % of control | [10] 109 % of control
